Source: ChEMBL document CHEMBL1201862, “PubChem BioAssay data set” (2004)
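96-well plates; 48 h exposure; 5 concentrations. Endpoints by linear interpolation between flanking doses. Not reached: highest tested concentration assigned. The concentration for 50% growth inhibition is given as GI50.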 Active and inactive are the calls of the source. Rule as the data show it: active = GI50 up to about 1.1 µM and inactive = higher.

Key:
Experiment in all cases: NCI tumour cell line growth inhibition, 48 h
[1] = system: NCI-H522
[2] = system: K562
[3] = system: KM12
[4] = system: A549
[5] = system: HCC 2998
[6] = system: UACC-257
[7] = system: SNB-75
[8] = system: RPMI-8226
[9] = system: EKVX
[10] = system: SK-MEL-5
[11] = system: LOX IMVI
[12] = system: MOLT-4
[13] = system: OVCAR-4
[14] = system: NCI-H226
[15] = system: HOP-62
[16] = system: RXF 393
[17] = system: NCI-H460
[18] = system: NCI-H23

Structure (SMILES)	GI50 [1]	GI50 [2]	GI50 [3]	GI50 [4]	GI50 [5]	GI50 [6]	GI50 [7]	GI50 [8]	GI50 [9]	GI50 [10]	GI50 [11]	GI50 [12]	GI50 [13]	GI50 [14]	GI50 [15]	GI50 [16]	GI50 [17]	GI50 [18]
Cc1ccc(S(=O)(=O)NC2CCCCO2)cc1 (centres undefined)	> 100 µM (inactive)	> 100 µM (inactive)	> 100 µM (inactive)	> 100 µM (inactive)	> 100 µM (inactive)	> 100 µM (inactive)	> 100 µM (inactive)	> 100 µM (inactive)	> 100 µM (inactive)	> 100 µM (inactive)	> 100 µM (inactive)	> 100 µM (inactive)	> 100 µM (inactive)	> 100 µM (inactive)	> 100 µM (inactive)	> 100 µM (inactive)	> 100 µM (inactive)	> 100 µM (inactive)
CC1C(=O)CCC1C(Sc1ccccc1)(Sc1ccccc1)Sc1ccccc1 (centres undefined)	11.1 µM (inactive)	20.5 µM (inactive)	24.7 µM (inactive)	9.27 µM (inactive)	20.8 µM (inactive)	31.5 µM (inactive)	17.1 µM (inactive)	12.6 µM (inactive)	55.6 µM (inactive)	16.9 µM (inactive)	21 µM (inactive)	4.73 µM (inactive)	18.8 µM (inactive)	–	37.4 µM (inactive)	14.2 µM (inactive)	41.4 µM (inactive)	22.5 µM (inactive)
C=Cc1cncc(C#N)c1CCc1c(C#N)cncc1C=C	> 10 µM (inactive)	> 10 µM (inactive)	> 10 µM (inactive)	> 10 µM (inactive)	> 10 µM (inactive)	> 10 µM (inactive)	> 10 µM (inactive)	> 10 µM (inactive)	49 µM (inactive)	> 10 µM (inactive)	> 100 µM (inactive)	> 10 µM (inactive)	> 10 µM (inactive)	> 10 µM (inactive)	> 10 µM (inactive)	56.5 µM (inactive)	> 10 µM (inactive)	> 10 µM (inactive)
Cc1ccc(C)c(NC(=O)c2cccc([N+](=O)[O-])c2O)c1	23.3 µM (inactive)	> 100 µM (inactive)	23.7 µM (inactive)	25.5 µM (inactive)	28.3 µM (inactive)	16.1 µM (inactive)	20.4 µM (inactive)	5.71 µM (inactive)	29.5 µM (inactive)	5.9 µM (inactive)	16.7 µM (inactive)	20.3 µM (inactive)	13.2 µM (inactive)	16.6 µM (inactive)	15.8 µM (inactive)	0.871 µM (active)	20.9 µM (inactive)	16.3 µM (inactive)
CC(=O)OC1(C#N)CC2OC1C1NC21 (centres undefined)	> 100 µM (inactive)	> 100 µM (inactive)	–	> 100 µM (inactive)	> 100 µM (inactive)	–	> 100 µM (inactive)	> 100 µM (inactive)	> 100 µM (inactive)	> 100 µM (inactive)	> 100 µM (inactive)	> 100 µM (inactive)	> 100 µM (inactive)	> 100 µM (inactive)	> 100 µM (inactive)	> 100 µM (inactive)	> 100 µM (inactive)	> 100 µM (inactive)
N#CC(C#N)=Cc1cccc(Oc2ccccc2)c1	21.2 µM (inactive)	23.7 µM (inactive)	22.3 µM (inactive)	70.3 µM (inactive)	28.4 µM (inactive)	16.8 µM (inactive)	29.2 µM (inactive)	20.9 µM (inactive)	54.2 µM (inactive)	18.9 µM (inactive)	20.6 µM (inactive)	25 µM (inactive)	–	33 µM (inactive)	23.4 µM (inactive)	17.7 µM (inactive)	25.5 µM (inactive)	14.9 µM (inactive)
